Laboratory results published in patent US11279733B2, “Peptide antibiotics” (priority 2017, dated 2022).
≈ marks a conversion by molar mass, not a printed value. Like-named read-outs stand apart in the source and are kept apart here. Positions of bridges follow the written chain, without caps; N, C: chain ends. Non-standard residues stand in square brackets, D forms with d. Residues, ends and D or L forms follow the SMILES beside them. *: point of attachment. Isonicotinoyl(2-Ph) = O=C(c1ccnc(-c2ccccc2)c1)*; Benzoyl(4-OPh) = O=C(c1ccc(Oc2ccccc2)cc1)*; Butanoyl(4-OPh) = O=C(CCCOc1ccccc1)*; X1 = CCCCCCCN1CCC(C(=O)*)CC1; dDab = NCC[C@@H](N)C(=O)O; Dab = NCC[C@H](N)C(=O)O; X5 = O=C(CCCCCCCO)*

How the values were obtained:
in vitro [1] = settings: human
In short: (§1)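 Fluorescence read-out (excitation 560, emission 590) after a 2 h, 37 °C incubation with 5 μM resazurin, following 24 h compound treatment of cells plated at 4000 per well. CC50 values come from fitting dose–response curves of growth inhibition.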

[2] = tested on: P. aeruginosa GN_043, PmxR
In short: (§2)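 Mid-log cultures grown in Mueller Hinton broth at 37° C were tested by 2-fold broth microdilution at 5×10^5 CFU/mL final. Compounds were dissolved in water and tested over a final range of 32 to 0.015 μg/mL.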

A. baumannii ATCC 19606 = settings: ATCC 19606
In short: as §2

[3] = tested on: K. pneumoniae ATCC BAA-2146, NDM-1 pos; settings: ATCC BAA-2146
In short: as §2

K. pneumoniae ATCC 13883 = settings: ATCC 13883
In short: as §2

E. coli ATCC 25922 = settings: ATCC 25922
In short: as §2

P. aeruginosa ATCC 27853 = settings: ATCC 27853
In short: as §2

[4] = tested on: K. pneumoniae GN_106, PmxR; settings: GN 106, PmxR
In short: as §2

[5] = tested on: S. aureus ATCC 25923, MSSA; settings: ATCC 25923
In short: as §2

[6] = tested on: P. aeruginosa GN_105, PmxR; settings: GN 105, PmxR
In short: as §2

[7] = tested on: K. pneumoniae ATCC 700603, MDR; settings: ATCC 700603
In short: as §2

[8] = tested on: K. pneumoniae GN_102 PmxR; settings: GN 102 PmxR
In short: as §2

A. baumannii GN_093 PmxR = settings: GN 093 PmxR
In short: as §2

in vitro [9] = settings: human; remark: listed apart in the source
In short: as §1

in vitro [10] = settings: human; remark: listed apart in the source
In short: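 HK2 cells were seeded at 2000 per well in DMEM/F12 with 10% FBS and left to attach for 24 h at 37 °C, 5% CO2. They were then exposed for 24 h to 3-fold peptide dilutions starting from 600 μM solutions in quadruplicate. LDH release was read at 450 nm, and CC50 was fitted from dose-response curves.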

Row | Compound | CC50 at 24 h (in vitro [1]) [µM] | MIC P. aeruginosa GN_043, PmxR ([2]; P. aeruginosa GN_043, PmxR) [µg/mL] | MIC A. baumannii ATCC 19606 (A. baumannii ATCC 19606) [µg/mL] | MIC K. pneumoniae ATCC BAA-2146, NDM-1 pos [3] [µg/mL] | MIC K. pneumoniae ATCC 13883 (K. pneumoniae ATCC 13883) [µg/mL] | MIC E. coli ATCC 25922 (E. coli ATCC 25922) [µg/mL] | MIC P. aeruginosa ATCC 27853 (P. aeruginosa ATCC 27853) [µg/mL] | MIC K. pneumoniae GN_106, PmxR [4] [µg/mL] | MIC S. aureus ATCC 25923, MSSA [5] [µg/mL] | MIC P. aeruginosa GN_105, PmxR [6] [µg/mL] | MIC K. pneumoniae ATCC 700603, MDR [7] [µg/mL] | MIC K. pneumoniae GN_102 PmxR [8] [µg/mL] | MIC A. baumannii GN_093 PmxR (A. baumannii GN_093 PmxR) [µg/mL] | CC50 at 24 h (in vitro [9]) [µM] | CC50 at 24 h (in vitro [10]) [µM] | MIC P. aeruginosa GN_043, PmxR [2] [µg/mL]
1 | CC(C)C[C@@H]1NC(=O)[C@H](CCN)NC(=O)[C@H](CCN)NC(=O)[C@H](Cc2ccccc2)NC(=O)[C@@H](CC(C)C)NC(=O)[C@H](CCN)NC(=O)[C@@H](NC(=O)[C@@H](CCN)NC(=O)c2ccc(Oc3ccccc3)cc2)CCNC1=O [compound 6519, Ph-4-OPhCO-D-Dab-cyc[L-Dab-L-Dab-D-Leu-L-Phe-L-Dab-L-Dab-L-Leu]] ({Benzoyl(4-OPh)}-[dDab][Dab][Dab][dL]F[Dab][Dab]L; lactam 2-C) | > 300 | 1 (≈ 0.934 µM) | >32 | 16 (≈ 14.9 µM) | 16 (≈ 14.9 µM) | 2 (≈ 1.87 µM) | 2 (≈ 1.87 µM) | 32 (≈ 29.9 µM) | 32 (≈ 29.9 µM) | 4 (≈ 3.74 µM) | 8 (≈ 7.47 µM) | >32 | 32 (≈ 29.9 µM) | > 300 | 163 | 
2 | CC(C)C[C@@H]1NC(=O)[C@H](CCN)NC(=O)[C@H](CCN)NC(=O)[C@H](Cc2ccccc2)NC(=O)[C@@H](CC(C)C)NC(=O)[C@H](CCN)NC(=O)[C@@H](NC(=O)[C@@H](CCN)NC(=O)CCCOc2ccccc2)CCNC1=O [compound 6521, 4-phenoxybutanoic acid-D-Dab-cyc[L-Dab-L-Dab-D-Leu-L-Phe-L-Dab-L-Dab-L-Leu]] ({Butanoyl(4-OPh)}-[dDab][Dab][Dab][dL]F[Dab][Dab]L; lactam 2-C) | > 300 | 2 (≈ 1.93 µM) | >32 | 16 (≈ 15.4 µM) | 32 (≈ 30.9 µM) | 8 (≈ 7.72 µM) | 2 (≈ 1.93 µM) | 32 (≈ 30.9 µM) | >32 | 16 (≈ 15.4 µM) | 16 (≈ 15.4 µM) | 16 (≈ 15.4 µM) | >32 | > 300 | 290 | 
3 | CC(C)C[C@@H]1NC(=O)[C@H](CCN)NC(=O)[C@H](CCN)NC(=O)[C@H](CC(C)C)NC(=O)[C@@H](Cc2ccccc2)NC(=O)[C@H](CCN)NC(=O)[C@@H](NC(=O)[C@@H](CCN)NC(=O)CCCCCCCO)CCNC1=O [compound 6522, 8OH-nC7CO-D-Dab-cyc[L-Dab-L-Dab-D-Phe-L-Leu-L-Dab-L-Dab-L-Leu]] (X5-[dDab][Dab][Dab][dF]L[Dab][Dab]L; lactam 2-C) | > 300 |  | >32 | >32 | >32 | >32 | 2 (≈ 1.97 µM) | >32 | >32 | >32 | >32 | >32 | >32 | > 300 | 208 | 2 (≈ 1.97 µM)
4 | CCCCCCCN1CCC(C(=O)N[C@H](CCN)C(=O)N[C@H]2CCNC(=O)[C@H](CC(C)C)NC(=O)[C@H](CCN)NC(=O)[C@H](CCN)NC(=O)[C@H](CC(C)C)NC(=O)[C@@H](Cc3ccccc3)NC(=O)[C@H](CCN)NC2=O)CC1 [compound 6524, 1-heptylpiperidine-4-carboxylic acid-D-Dab-cyc[L-Dab-L-Dab-D-Phe-L-Leu-L-Dab-L-Dab-L-Leu]] (X1-[dDab][Dab][Dab][dF]L[Dab][Dab]L; lactam 2-C) | > 300 |  | >32 | 32 (≈ 29.5 µM) | >32 | 32 (≈ 29.5 µM) | 1 (≈ 0.923 µM) | 32 (≈ 29.5 µM) | 32 (≈ 29.5 µM) | 2 (≈ 1.85 µM) | >32 | >32 | >32 | > 300 | 106 | 0.5 (≈ 0.461 µM)
5 | CC(C)C[C@@H]1NC(=O)[C@H](CCN)NC(=O)[C@H](CCN)NC(=O)[C@H](CC(C)C)NC(=O)[C@@H](Cc2ccccc2)NC(=O)[C@H](CCN)NC(=O)[C@@H](NC(=O)[C@@H](CCN)NC(=O)c2ccnc(-c3ccccc3)c2)CCNC1=O [compound 6525, 3Phe4-PyCO-D-Dab-cyc[L-Dab-L-Dab-D-Phe-L-Leu-L-Dab-L-Dab-L-Leu]] ({Isonicotinoyl(2-Ph)}-[dDab][Dab][Dab][dF]L[Dab][Dab]L; lactam 2-C) | > 300 |  | >32 | 16 (≈ 15.2 µM) | 16 (≈ 15.2 µM) | 4 (≈ 3.79 µM) | 4 (≈ 3.79 µM) | >32 | >32 | 8 (≈ 7.58 µM) | 8 (≈ 7.58 µM) | 16 (≈ 15.2 µM) | >32 | > 300 | > 300 | 2 (≈ 1.9 µM)
6 | CC(C)C[C@@H]1NC(=O)[C@H](CCN)NC(=O)[C@H](CCN)NC(=O)[C@H](CC(C)C)NC(=O)[C@@H](Cc2ccccc2)NC(=O)[C@H](CCN)NC(=O)[C@@H](NC(=O)[C@@H](CCN)NC(=O)CCCOc2ccccc2)CCNC1=O [compound 6529, 4-phenoxybutanoic acid-D-Dab-cyc[L-Dab-L-Dab-D-Phe-L-Leu-L-Dab-L-Dab-L-Leu]] ({Butanoyl(4-OPh)}-[dDab][Dab][Dab][dF]L[Dab][Dab]L; lactam 2-C) | > 300 |  | >32 | 32 (≈ 30.9 µM) | 16 (≈ 15.4 µM) | 8 (≈ 7.72 µM) | 2 (≈ 1.93 µM) | >32 | >32 | 16 (≈ 15.4 µM) | 32 (≈ 30.9 µM) | >32 | >32 | > 300 | 199 | 1 (≈ 0.965 µM)
